Reference: patent US4414332A (Boehringer Mannheim GmbH, priority 1980, dated 1983)
“Also recorded” adds a separate entry of the source. Where two headings read alike, the source gives them in different places.

Target: T1, endoproteinase-Lys-C (Lysobacter enzymogenes, UniProt Q7M135)
T1 construct: consists of a chain of molecular weight 35000 to 38000 Dalton; made in house
Test: Inhibition of endoproteinase-Lys-C by protease inhibitors
Format: biochemical, Lysobacter enzymogenes ssp. enzymogenes

T1 sequence (Q7M135 whole entry): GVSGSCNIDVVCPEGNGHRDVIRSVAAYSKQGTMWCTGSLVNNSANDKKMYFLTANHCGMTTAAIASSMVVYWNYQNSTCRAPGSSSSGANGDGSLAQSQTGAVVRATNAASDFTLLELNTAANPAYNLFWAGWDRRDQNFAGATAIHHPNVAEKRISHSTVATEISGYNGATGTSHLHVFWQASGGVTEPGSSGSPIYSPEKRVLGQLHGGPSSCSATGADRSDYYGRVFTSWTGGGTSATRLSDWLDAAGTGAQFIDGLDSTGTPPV

Molecule	inhibition of the enzyme	further results
aprotinin	inhibited	inhibition of the enzyme (listed as Aprotonin): inhibits the enzyme completely
α2 -macroglobulin	not inhibited	inhibition of the enzyme (listed as alpha2 microglobulin): do not inhibit
O=C(O)CN(CCN(CC(=O)O)CC(=O)O)CC(=O)O [ethylenediaminetetraacetic acid]	not inhibited	inhibition of the enzyme (EDTA up to 10^-2 M): do not inhibit
N=C(N)c1ccccc1 [Benzamidine]	–	inhibition at 2500 µM (at 2.5 mM, read-out: inhibition of the enzyme): ~50%
α1 -antitrypsin	not inhibited; also recorded: do not inhibit	–
